This note sets out measurements from patent publication US9615581B2, “Stable needle-shaped crystals of natamycin” (DSM IP ASSETS B.V., priority 2004, dated 2017).

What all share (assay type): physicochemical
The nature of data set [1]: Dissolution of natamycin in water as a function of pH. As to the method:
According to another aspect of the present invention, there is provided a process to produce the needle-shaped crystals of the invention. In the first step of this process, natamycin is dissolved in an aqueous solution. The solution comprises at least 80 wt %, preferably at least 90 wt % more preferably at least 95 wt % and still more preferably at least 98 wt % and preferably at least 99 wt % water as solvent. […] Preferably, natamycin is dissolved at a pH ranged between 10 and 14, more preferably at a pH ranged between 11 and 13. In general, natamycin of a purity of more than 90 wt % (including hydrate) preferably of a purity of 95% is used.

Data set [2] can be described thus: Sedimentation (demixing) of natamycin dispersions in tapwater in glass tubes. The settings on record: 1.5 g Delvocid equivalent in 1000 g tapwater, glass tube. As to the method:
This example describes the test performed to analyze the sedimentation differences. 1.5 g Delvocid® was added to 998.5 gram tapwater and dispersed well by an electric top stirrer, type RW 20 DZM, from Janke & Kunkel equipped with a rushton stirrer. 1.5 gram of Delvocid® made according to Example 1 was mixed with tapwater to a final weight of 1000 gram by an electric top stirrer, type RW 20 DZM, from Janke & Kunkel equipped with a rushton stirrer. Both homogeneous mixtures were poured in glass tubes and observed in time on demixing.

Data set [3] in a line: Crystal form stability of needle-shaped crystal suspension on storage. The settings on record: 6 months of storage of suspension at 10° C. An excerpt: As discussed above a sediment of the needle-shaped crystals of the present invention can be easily brought back in the suspended state without exclusive stirring or shaking. Another advantage of the needle-shaped crystals is that this crystal form is stable.

A short description of data set [4]: Resuspendability of settled natamycin in a low viscous dispersion. The settings on record: not touched for 26 days, glass tubes turned around once. As to the method:
This example describes the test that was performed to analyze the resuspendability of settled natamycin in a low viscous dispersion. 1.5 gram Delvocid® was added to 998.5 gram tapwater and dispersed well by an electric top stirrer, type RW 20 DZM, from Janke & Kunkel equipped with a rushton stirrer. An amount equal to 1.5 gram Delvocid® made according to Example 1 was mixed with tapwater to a final weight of 1000 gram by an electric top stirrer, type RW 20 DZM, from Janke & Kunkel equipped with a rushton stirrer. Both homogeneous mixtures were poured in glass tubes and not touched for 26 days.

The nature of data set [5]: Stability of recrystallized natamycin dispersion (rest activity by HPLC). The conditions noted are these: for Found natamycin activity (%): dispersion made according to Example 1. As to the method: This example describes the method that was used to analyze the amount of active natamycin in a water-based mixture of several components.
The method used was a HPLC analysis based on the International Dairy Federation (Provisional IDF Standard 140, 1992) with a Lichrosorb RP 8 column.
Detection was at 303 nm UV with a range of 0.1-4 mg/L with an injection volume of 20 μl. Sample preparation was carried out by weighing 2 g of prepared formulation with an accuracy of 1 mg in a measuring flask. 4 ml demineralized water (demiwater) was added and the mixture was stirred for 15 minutes to get a homogeneous suspension.
Subsequently, 80 ml ethanol was added and the mixture was stirred for 10 minutes.
After ultrasonic treatment, the solution was filled up to 100 ml with demiwater and then diluted and/or filtered (0.2 μm) before injecting. The amount of active natamycin was calculated as ppm against a series of standards.
This example describes the stability of recrystallized natamycin, a natamycin dispersion is made according to Example 1 and followed in time on stability.

Take `C[C@@H]1C/C=C/C=C/C=C/C=C/[C@H](O[C@@H]2O[C@H](C)[C@@H](O)[C@H](N)[C@@H]2O)C[C@@H]2O[C@](O)(C[C@@H](O)C[C@H]3O[C@@H]3/C=C/C(=O)O1)C[C@H](O)[C@H]2C(=O)O` [natamycin]: the dissolution in water entry is reported as “easily dissolve” in data set [1] (low pH (lower than 4.0) or high pH (above 10.0)) and “hardly dissolve” in data set [1] (neutral pH).
On to `C[C@@H]1C/C=C/C=C/C=C/C=C/[C@H](O[C@@H]2O[C@H](C)[C@@H](O)[C@H](N)[C@@H]2O)C[C@@H]2O[C@](O)(C[C@@H](O)C[C@H]3O[C@@H]3/C=C/C(=O)O1)C[C@H](O)[C@H]2C(=O)O` [Recrystallized natamycin, natamycin], for which the demixing observed result is “Homogeneous” in data set [2] (time 0 minutes); “Homogeneous” in data set [2] (time 40 minutes); “Homogeneous” in data set [2] (time 60 minutes); “Homogeneous” in data set [2] (time 110 minutes); “Homogeneous” in data set [2] (time 180 minutes); “Start demixing observed” in data set [2] (time 4320 minutes). For the same compound, the “crystal form and mean length after storage” value in data set [3] was “still contained needle-shaped crystals having the same mean length”. Besides, in data set [4], the resuspendability of pellet result is “almost completely resuspended”. Also, the stability entry in data set [5] (for at least six months) is given as “very high”. The “Found natamycin activity (%)” value was found to be 100% in data set [5] (incubation time 0 months); 100% in data set [5] (incubation time 1 month); 99% in data set [5] (incubation time 2 months); 100% in data set [5] (incubation time 4 months); 98% in data set [5] (incubation time 6 months).
Take `C[C@@H]1C/C=C/C=C/C=C/C=C/[C@H](O[C@@H]2O[C@H](C)[C@@H](O)[C@H](N)[C@@H]2O)C[C@@H]2O[C@](O)(C[C@@H](O)C[C@H]3O[C@@H]3/C=C/C(=O)O1)C[C@H](O)[C@H]2C(=O)O` [Standard natamycin, natamycin]: the demixing observed entry in data set [2] (time 0 minutes) was “Homogeneous”; in data set [2] (time 40 minutes) it was “Start demixing observed”; in data set [2] (time 60 minutes) it was “Two layers observed”; in data set [2] (time 110 minutes) it was “Pellet formation”; in data set [2] (time 180 minutes) it was “Pellet formation”; in data set [2] (time 4320 minutes), “Pellet and clear top layer”. The resuspendability of pellet result in data set [4] was “remained a solid pellet”.
